Reference: patent US20250041237A1, “HEMOGLOBIN-BASED NANOPARTICLES” (priority 2023, published 2025)

Assays:
MRSA = assay: Mouse MRSA peritonitis model study; assay type: in vivo, ICR mice; conditions: treated i.v. 6 h after MRSA i.p. inoculation; monitored two weeks
[1] = test system: murine or human neutrophils; assay: Transwell chemotaxis assay; assay type: cell-based; conditions: lipid radical scavenger added
From the text: Transwell chemotaxis assay. Cytoplasmic membranes of S. aureus Newman, MRSA, or MDRSA were isolated from lysostaphin-induced protoplasts as previously described. Briefly, the bacterial cells were washed and resuspended in buffered hypertonic sucrose, followed by treatment with lysostaphin to digest the cell walls. The resulting protoplasts were recovered and lysed in the dilute buffer to extract cytoplasmic membranes. To evaluate the chemotaxis ability of human or murine neutrophils towards S. aureus membranes, a 96-transwell plate with 3 μm pores was used (Corning, USA). The bottom wells were loaded with 200 μL of the bacterial cell membrane in chemotaxis buffer (49% HBSS, 0.5% human serum albumin, 4 mM L-glutamine, and 49% RPMI 1640), while the top wells contained 2×10^5 neutrophils in 75 μL chemotaxis buffer. The plate was incubated in the dark at 37° C. with 5% CO2 for 1.5 h. Neutrophils that had migrated into the bottom wells were lysed with elastase assay buffer to release the neutrophil elastase. The activity of elastase was measured using the chromogenic substrate, N-methoxysuccinyl-Ala-Ala-Pro-Val-p-nitroanilide, at a final concentration of 1 mM. The absorbance at 405 nm was measured using a GloMax-Multi microplate multimode reader (Promega, WI, USA) to determine the number of migrated neutrophils.

For `CN(C/C=C/c1ccccc1)Cc1cccc2ccccc12` [naftifine], the survival (MRSA) was 12.5%.

For `Clc1cccc(CN=C2Nc3ccccc3NC23CCNCC3)c1` [Liproxstatin-1], the “Hb-Naf@RBCM-induced neutrophil recruitment” value [1] was “significantly inhibited”.
